This is an account of results in patent US11254671B2, “Chemical compounds” (GLAXOSMITHKLINE INTELLECTUAL PROPERTY DEVELOPMENT LIMITED, priority 2017, dated 2022).

Structures are written as SMILES. Where “and” joins values, the source holds several entries; their conditions need not be identical. Equal values may be shown once.

This assay addresses T1, mTOR (Homo sapiens, UniProt P42345).
T1 construct: capturing of endogenously expressed target proteins from cell extracts by a bead-immobilized capturing ligand; endogenous in cells; host or cells: HuT-78 cells (ECACC 88041901), cell lysate
In words: mTOR kinobeads assay (competition-binding assay). To be noted: HuT-78 cell extract, endogenously expressed mTOR, bead-immobilized capturing ligand; mean of multiple experiments; read-out: mean pIC50, affinity for mTOR (converted). The essentials: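 Competition binding of endogenous mTOR from HuT-78 cell lysate (250 μg, 5 mg/ml) to immobilized Compound A/C beads, 2 h at 4 °C, pH 7.5, 2% DMSO, 11-point series. Bead-bound mTOR eluted, dot-blotted, detected by anti-mTOR infrared immunofluorescence; normalized to DMSO and 100 μM Compound B controls, 4-parameter fit to pIC50.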

`CC[C@H]1COCCN1c1cc(C2(S(C)(=O)=O)CCOCC2)cc(-c2ccc3[nH]c(CO)cc3n2)n1` [Example 33, (5-{6-[(3S)-3-ethylmorpholin-4-yl]-4-(4-methanesulfonyloxan-4-yl)pyridin-2-yl}-1H-pyrrolo[3,2-b]pyridin-2-yl)methanol]: the IC50 is 2.51 to 31.6 nM and 2.51 to 316 nM.

For `CC[C@H]1COCCN1c1cc(CS(C)(=O)=O)cc(-c2ccc3[nH]c(CO)cc3n2)n1` [Example 34, (5-{6-[(3S)-3-ethylmorpholin-4-yl]-4-(methanesulfonylmethyl)pyridin-2-yl}-1H-pyrrolo[3,2-b]pyridin-2-yl)methanol], the IC50 was 2.51 to 31.6 nM and 2.51 to 316 nM.

With `CC[C@H]1COCCN1c1cc(CS(=O)(=O)N(C)C)cc(-c2ccc3[nH]c(CO)cc3n2)n1` [Example 35, 1-{2-[(3S)-3-ethylmorpholin-4-yl]-6-[2-(hydroxymethyl)-1H-pyrrolo[3,2-b]pyridin-5-yl]pyridin-4-yl}-N,N-dimethylmethanesulfonamide], the IC50 is 2.51 to 31.6 nM and 2.51 to 316 nM.

Take `CNCc1cc2nc(-c3cc(C4(S(C)(=O)=O)CCOCC4)cc(N4C5CCC4COC5)n3)ccc2[nH]1` [Example 40, ({5-[4-(4-methanesulfonyloxan-4-yl)-6-{3-oxa-8-azabicyclo[3.2.1]octan-8-yl}pyridin-2-yl]-1H-pyrrolo[3,2-b]pyridin-2-yl}methyl)(methyl)amine]: the IC50 is 2.51 to 316 nM.
